Measured values published in article PMC3522424 (Vaccine, 2012).

System: PBMCs from HIV-infected HLA-A2-positive subjects
Assay: IFNγ ELISpot with PBMCs from HIV-infected HLA-A2 subjects
Settings: for % donors responding positively in ELISpots: Providence and Mali donors together; for IFNγ ELISpot response, donor 0015404: A02, A0285, A0286; for IFNγ ELISpot response, donor 0015299 / IFNγ ELISpot response, donor 0018349: A0208; for IFNγ ELISpot response, donor 0015269: A0209, A0231; for IFNγ ELISpot response, donor H_0912: HLA-A A0201; for IFNγ ELISpot response, donor H_0865: HLA-A A02011
[1] = cohort #3 Bamako, Mali, positive donors / 8 donors
[2] = cohort #3 Bamako, Mali, peptide 10 μg/ml, overnight 37°C
[3] = cohort #1 Providence, positive donors / 16 donors
[4] = cohort #1 Providence, peptide 10 μg/ml, overnight 37°C

Question: With ILKEPVHGVY [Peptide 1249] as the sequence, how does the “Subjects with a positive response” value (cohort #2 Providence, eight subjects) read?
Answer: The value was 37.5%.

Question: What about the “Total responses per epitope” value (cohort #2 Providence, positive donors / 8 donors) of the same sequence?
Answer: The value was 3/8.

Question: And the “IFNγ ELISpot response, donor 0517001” value (cohort #2 Providence, A2, A3, B44, Cw05, Cw07, peptide 10 μg/ml, overnight 37°C)?
Answer: The value was 117 spots per 10^6 PBMCs.

Question: What about the “IFNγ ELISpot response, donor 0902991” value (cohort #2 Providence, A2, A30, B39, peptide 10 μg/ml, overnight 37°C) of the same sequence?
Answer: The value was 2380 spots per 10^6 PBMCs.

Question: What does the source list for SAEPVPLQL [Peptide 2003]?
Answer: % donors responding positively in ELISpots (peptide 10 μg/ml): 50.0%; Total responses per epitope [1]: 4/8; IFNγ ELISpot response, donor 0015404 [2]: 50 spots per 10^6 PBMCs; IFNγ ELISpot response, donor 0015299 [2]: 25 spots per 10^6 PBMCs; IFNγ ELISpot response, donor 0018349 [2]: 25 spots per 10^6 PBMCs; IFNγ ELISpot response, donor 0015269 [2]: - (ELISpot responses that fall below this cutoff point are indicated with a dash mark)

Question: Which “% donors responding positively in ELISpots” value (peptide 10 μg/ml) does the source give for RTLNAWVKV [Peptide 3003] here?
Answer: Its value is 25.0%.

Question: And the “Total responses per epitope” value [1]?
Answer: The value was 2/8.

Question: What about the “IFNγ ELISpot response, donor 0015404” value [2] of the same sequence?
Answer: The value was 43 spots per 10^6 PBMCs.

Question: What about the “IFNγ ELISpot response, donor 0015299” value [2] of the same sequence?
Answer: The value was “- (ELISpot responses that fall below this cutoff point are indicated with a dash mark)”.

Question: And the “IFNγ ELISpot response, donor 0018349” value [2]?
Answer: The value was “- (ELISpot responses that fall below this cutoff point are indicated with a dash mark)”.

Question: And the “IFNγ ELISpot response, donor 0015269” value [2]?
Answer: The value was “- (ELISpot responses that fall below this cutoff point are indicated with a dash mark)”.

Question: How did the “% donors responding positively in ELISpots” value (peptide 10 μg/ml) turn out when WLWYIKIFI [Peptide 3002] was run?
Answer: The value was 12.5%.

Question: What about the “Total responses per epitope” value [1] of the same sequence?
Answer: Its value is 1/8.

Question: And the “IFNγ ELISpot response, donor 0015404” value [2]?
Answer: The value was 63 spots per 10^6 PBMCs.

Question: What about the “IFNγ ELISpot response, donor 0015299” value [2] of the same sequence?
Answer: The value was “- (ELISpot responses that fall below this cutoff point are indicated with a dash mark)”.

Question: What about the “IFNγ ELISpot response, donor 0018349” value [2] of the same sequence?
Answer: The value was “- (ELISpot responses that fall below this cutoff point are indicated with a dash mark)”.

Question: And the “IFNγ ELISpot response, donor 0015269” value [2]?
Answer: The value was “- (ELISpot responses that fall below this cutoff point are indicated with a dash mark)”.

Question: For PLQLPPLERL [Peptide 2004], which “% donors responding positively in ELISpots” value (peptide 10 μg/ml) is on record?
Answer: The value was 50.0%.

Question: What about the “Total responses per epitope” value [1] of the same sequence?
Answer: The value was 4/8.

Question: What about the “IFNγ ELISpot response, donor 0015404” value [2] of the same sequence?
Answer: The value was 59 spots per 10^6 PBMCs.

Question: What about the “IFNγ ELISpot response, donor 0015299” value [2] of the same sequence?
Answer: The value was 36 spots per 10^6 PBMCs.

Question: What about the “IFNγ ELISpot response, donor 0018349” value [2] of the same sequence?
Answer: Its value is 37 spots per 10^6 PBMCs.

Question: And the “IFNγ ELISpot response, donor 0015269” value [2]?
Answer: The value was “- (ELISpot responses that fall below this cutoff point are indicated with a dash mark)”.

Question: Which “IFNγ ELISpot response, stated in words” value (PBMCs from HIV-1-infected HLA-A2 subjects, Providence and/or Bamako as stated) does the source give for DIQKLVGKL [Peptide 1010] here?
Answer: Its value is “elicited IFNγ ELISpot responses”.

Question: What about the “% donors responding positively in ELISpots” value (peptide 10 μg/ml) of the same sequence?
Answer: Its value is 6.3%.

Question: And the “Total responses per epitope” value [3]?
Answer: Its value is 1/16.

Question: And the “IFNγ ELISpot response, donor H_0912” value [4]?
Answer: Its value is “- (ELISpot responses that fall below this cutoff point are indicated with a dash mark)”.

Question: And the “IFNγ ELISpot response, donor H_0836” value (cohort #1 Providence, HLA-A A02011, A2901, peptide 10 μg/ml, overnight 37°C)?
Answer: The value was 64 spots per 10^6 PBMCs.

Question: What about the “IFNγ ELISpot response, donor H_0865” value [4] of the same sequence?
Answer: Its value is “- (ELISpot responses that fall below this cutoff point are indicated with a dash mark)”.

Question: How did the “% donors responding positively in ELISpots” value (peptide 10 μg/ml) turn out when GIKPVVSTQL [Peptide 1001] was run?
Answer: The value was 20.8%.

Question: And the “Total responses per epitope” value [3]?
Answer: Its value is 2/16.

Question: What about the “IFNγ ELISpot response, donor H_0912” value [4] of the same sequence?
Answer: Its value is 903 spots per 10^6 PBMCs.

Question: What about the “IFNγ ELISpot response, donor H_0854” value (cohort #1 Providence, HLA-A A02011, A3401, peptide 10 μg/ml, overnight 37°C) of the same sequence?
Answer: The value was 75 spots per 10^6 PBMCs.

Question: And the “IFNγ ELISpot response, donor H_0865” value [4]?
Answer: Its value is “- (ELISpot responses that fall below this cutoff point are indicated with a dash mark)”.

Question: What about the “Total responses per epitope” value [1] of the same sequence?
Answer: Its value is 3/8.

Question: And the “IFNγ ELISpot response, donor 0015404” value [2]?
Answer: The value was 111 spots per 10^6 PBMCs.

Question: And the “IFNγ ELISpot response, donor 0015299” value [2]?
Answer: The value was 53 spots per 10^6 PBMCs.

Question: What about the “IFNγ ELISpot response, donor 0018349” value [2] of the same sequence?
Answer: The value was 37 spots per 10^6 PBMCs.

Question: What about the “IFNγ ELISpot response, donor 0015269” value [2] of the same sequence?
Answer: The value was “- (ELISpot responses that fall below this cutoff point are indicated with a dash mark)”.

Question: With RLEPWKHPG [Peptide 1017] as the sequence, how does the “% donors responding positively in ELISpots” value (peptide 10 μg/ml) read?
Answer: Its value is 6.3%.

Question: What about the “Total responses per epitope” value [3] of the same sequence?
Answer: The value was 1/16.

Question: What about the “IFNγ ELISpot response, donor H_0912” value [4] of the same sequence?
Answer: The value was 29 spots per 10^6 PBMCs.

Question: And the “IFNγ ELISpot response, donor H_0865” value [4]?
Answer: The value was “- (ELISpot responses that fall below this cutoff point are indicated with a dash mark)”.
